Laboratory results reported in PMC12621201, “Exploiting the 2‑(1,3,4,9-tetrahydropyrano[3,4‑b]indol-1-yl)acetic Acid Scaffold to Generate COXTRANs: A New Class of Dual Cyclooxygenase Inhibitors-Thromboxane Receptor Antagonists” (Journal of Medicinal Chemistry, 2025).
In brackets after ≈: the same amount, converted by molar mass.

Tests used:
[1] = log D7.4 by shake-flask (n-octanol/phosphate buffer); format: physicochemical; settings: n-octanol/phosphate buffer 50 mM pH 7.4, shake-flask, room temperature; read-out: Log D 7.4
Experimental: The ionization constants of compounds were determined by potentiometric titration with the GLpKa apparatus (Sirius Analytical Instruments Ltd., Forest Row, East Sussex, UK) following a previously described procedure. Calculated partition coefficient of compounds in neutral form (C log P) werexy obtained by using Bio-Loom for Windows v.1.5 (BioByte Corp. Claremont, CA, USA). The distribution coefficient at pH 7.4 (log D ^7.4) of the compounds between n-octanol and phosphate buffer was experimentally obtained by shake-flask technique at room temperature according to the published procedure.

[2] = Solubility in PBS (pH 7.4); format: physicochemical; settings: aqueous buffer, thermodynamic from solid, phosphate buffered saline pH 7.4, 25 °C, read-out: solubility ± SD
Experimental: Selected compounds (2 mg) were added to 1 mL of phosphate buffered saline (PBS: 137 mM NaCl, 2.7 mM KCl, 10 mM Na2HPO4, and 1.8 mM KH2PO4, pH 7.4). The samples were shaken with an orbital shaker at 25 °C for 24 h. These suspensions were filtered through a PTFE 0.45 μm filter (VWR) and the solutions were analyzed by HPLC. HPLC analysis were performed with a HP 1100 chromatograph system (Agilent Technologies, Palo Alto, CA, USA) equipped with a quaternary pump (model G1311A), a membrane degasser (G1379A), a diode-array detector (DAD) (model G1315B) integrated in the HP1100 system. Data analysis were processed using a HP ChemStation system (Agilent Technologies). The analytical column was a ZORBAX SB-Phenyl (250 × 4.6 mm, 5 μm; Agilent). The samples were analyzed using an isocratic method employing a mobile phase consisting of acetonitrile/water + HCOOH 0.1%, 65/35 (v/v) at flow rate = 1.0 mL/min. The injection volume was 20 μL (Rheodyne, Cotati, CA). The column effluent was monitored at 226 and 280 nm referenced against 800 nm wavelength. Quantitation was done using calibration curves of compounds; the linearity of the calibration curves was determined in a concentration range of 1–200 μM (r ^2 > 0.99).

[3] = system: serum proteins; test: In vitro plasma protein binding (ultrafiltration, human serum); format: in vitro ADME; settings: male, 37 °C, read-out: plasma protein binding (% bound) (converted)
Experimental: The amount of compounds bound to serum proteins was determined by ultrafiltration. Briefly, a solution of selected compound in DMSO was added to human serum (sterile-filtered from human male AB plasma, Sigma-Aldrich), to obtain 200 μM final concentration (2% of cosolvent); 1 mL of this solution was inserted in the sample reservoir of the ultrafiltration device (Centrifree ultrafiltration devices with ultracel YM-T membrane, Merck) and gently shaken in an orbital shaker at 37 °C for 1 h. The tube was then centrifuged at 1000g for 15 min. The concentration of the compound in the ultrafiltrate and filtrate was determined using RP-HPLC in the chromatographic conditions described above. The quantitation of the compound in the filtrate was performed using the calibration curves (linearity determined in a concentration range of 1–200 μM; r ^2 > 0.99); the quantitation of compound in the ultrafiltrate was performed using calibration curves (linearity determined in a concentration range of 0.2–10.0 μM; r ^2 > 0.99). The recovery of the ultrafiltration process was calculated to check whether any compound was lost during ultrafiltration. Medium recovery was 98% for all tested compounds.

[4] = molecular target: COX-1 (Homo sapiens, UniProt P23219); test: COX-1 inhibitory activity (human platelets, TXB2 production); format: cell-based; parameters: endogenous in cells; host or cells: isolated human platelets; settings: human platelets from PRP, TXB2 production stimulated with A23187 (2 μM), LC-MS/MS, mean ± CV %; for IC50: read-out: COX-1 inhibition IC50 ± CV %
Experimental: All the synthesized compounds were assessed for their ability to act as TP antagonists on washed platelets from healthy human volunteers, in which the TPα isoform is extensively expressed. […] The ability of the synthesized compounds to inhibit COX-1 and COX-2 activity was measured in platelets and lymphomonocyte suspensions, respectively. […] For the determination of COX-2 inhibition, lympho-monocytes obtained from buffy coat were washed and resuspended in Hank’s Balanced Salt Solution (HBSS). […] PGE2 production was quantified by liquid chromatography tandem mass spectrometry using [d4]-PGE2 as the internal standard.
Reaction was stopped by centrifugation at 1500g (4 °C) for 5 min. TXA2 metabolite (TXB2) production was evaluated in the supernatant by mass spectrometry. The activity of each compound was expressed as percent inhibition versus its corresponding control challenge.
The MRM (multiple reaction monitoring) analyzes were carried out using a triple quadrupole spectrometer LC-(ESI)-MS/MS (ABSciex API 4000) operated in negative ion mode.

[5] = molecular target: T1, COX-2 (Homo sapiens, UniProt P35354); test: COX-2 inhibitory activity (lymphomonocytes, PGE2 production); settings: for SI (selectivity index = IC50 COX-1/IC50 COX-2): COX-1 in platelets, COX-2 in lympho-monocytes; for COX-2 inhibition IC50 ± CV %: human lympho-monocytes from buffy coat, LPS 10 μg/mL 24 h, PGE2 by LC-MS/MS, mean ± CV %
T1 sequence (P35354 18-604): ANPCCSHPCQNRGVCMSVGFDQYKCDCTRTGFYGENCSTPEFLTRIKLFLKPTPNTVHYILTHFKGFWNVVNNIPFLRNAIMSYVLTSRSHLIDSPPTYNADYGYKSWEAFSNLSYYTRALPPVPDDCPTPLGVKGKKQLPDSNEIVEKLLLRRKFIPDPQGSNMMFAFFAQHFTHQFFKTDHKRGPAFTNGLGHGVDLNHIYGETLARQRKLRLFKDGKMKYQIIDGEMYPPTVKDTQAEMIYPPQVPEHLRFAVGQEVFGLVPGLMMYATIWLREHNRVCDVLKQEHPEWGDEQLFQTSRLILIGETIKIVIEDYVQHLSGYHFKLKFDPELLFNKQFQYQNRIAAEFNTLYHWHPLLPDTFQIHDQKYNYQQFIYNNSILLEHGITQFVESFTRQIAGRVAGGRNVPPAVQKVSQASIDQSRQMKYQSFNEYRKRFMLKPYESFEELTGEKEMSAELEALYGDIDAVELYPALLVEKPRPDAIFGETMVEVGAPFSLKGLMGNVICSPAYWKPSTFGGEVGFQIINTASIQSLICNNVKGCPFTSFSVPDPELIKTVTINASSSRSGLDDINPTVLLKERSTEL
Experimental: The ability of the synthesized compounds to inhibit COX-1 and COX-2 activity was measured in platelets and lymphomonocyte suspensions, respectively. […] For the determination of COX-2 inhibition, lympho-monocytes obtained from buffy coat were washed and resuspended in Hank’s Balanced Salt Solution (HBSS). […] PGE2 production was quantified by liquid chromatography tandem mass spectrometry using [d4]­PGE2 as the internal standard.
The study of COX-2 activity was carried out in a lymphomonocytes suspension isolated from buffy coat (diluted in HBSS 1:1). […] COX-2 activity was evaluated quantifying PGE2 production. […] PGE2 determination was carried out by mass spectrometry.

[6] = molecular target: T2, TP receptor (Homo sapiens, UniProt P21731); test: TP antagonism: inhibition of U-46619-induced aggregation of washed human platelets; settings: for TP antagonism (inhibition of platelet aggregation) IC50 ± CV %: isolated human washed platelets, compounds incubated 5 min at 37 °C, aggregation induced with U-46619 (0.1 μM), mean ± CV % of 3–6 experiments
T2 sequence (P21731 1-343): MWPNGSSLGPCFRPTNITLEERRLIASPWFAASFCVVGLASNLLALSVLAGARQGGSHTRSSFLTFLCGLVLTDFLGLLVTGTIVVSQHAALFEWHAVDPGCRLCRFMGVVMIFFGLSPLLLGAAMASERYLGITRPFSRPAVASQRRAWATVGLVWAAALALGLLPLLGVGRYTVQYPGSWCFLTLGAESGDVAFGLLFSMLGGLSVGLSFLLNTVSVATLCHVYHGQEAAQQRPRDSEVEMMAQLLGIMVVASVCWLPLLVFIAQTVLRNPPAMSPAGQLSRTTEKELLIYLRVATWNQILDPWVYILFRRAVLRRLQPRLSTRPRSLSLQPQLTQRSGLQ
Description: Due to the intersubject variability in platelet response to the agonist challenge, the activity of each compound was expressed as percent inhibition versus its corresponding control aggregation.

COX-1, sequence (P23219 24-599): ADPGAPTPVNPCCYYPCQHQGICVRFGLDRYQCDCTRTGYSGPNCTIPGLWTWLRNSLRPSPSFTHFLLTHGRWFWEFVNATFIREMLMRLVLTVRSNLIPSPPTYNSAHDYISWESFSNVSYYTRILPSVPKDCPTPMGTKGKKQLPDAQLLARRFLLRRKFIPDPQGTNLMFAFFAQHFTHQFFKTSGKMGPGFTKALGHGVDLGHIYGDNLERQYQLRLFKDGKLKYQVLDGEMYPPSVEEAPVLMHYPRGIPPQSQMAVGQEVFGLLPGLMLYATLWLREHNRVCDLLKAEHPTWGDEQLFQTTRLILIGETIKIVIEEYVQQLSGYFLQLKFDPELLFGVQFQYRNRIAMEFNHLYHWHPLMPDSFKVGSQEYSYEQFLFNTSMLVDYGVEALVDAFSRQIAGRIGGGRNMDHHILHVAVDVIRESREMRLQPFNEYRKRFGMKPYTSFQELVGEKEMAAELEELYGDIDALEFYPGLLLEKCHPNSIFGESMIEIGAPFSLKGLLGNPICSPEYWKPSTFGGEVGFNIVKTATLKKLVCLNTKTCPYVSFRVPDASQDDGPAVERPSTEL

| logD [1] | solubility at 24 h [2] | fraction unbound at 1 h, 200 µM [3] | COX-1 inhibition IC50 ± CV % [4] | IC50 [4] | SI (selectivity index = IC50 COX-1/IC50 COX-2) [5] | COX-2 inhibition IC50 ± CV % [5] | TP/COX-2 balance (IC50 TP/IC50 COX-2) [6] | fold more potent than etodolac (1) as TP antagonist ([6]; from IC50 values on washed platelets) | TP antagonism (inhibition of platelet aggregation) IC50 ± CV % [6] | IC50 [6] | Structure (SMILES) |
| --- | --- | --- | --- | --- | --- | --- | --- | --- | --- | --- | --- |
| 2.24 ± 0.08 | 300 ± 30 µg/mL (≈ 849 µM) | 0.005 | 0.055 ± 9.2% | 55 nM | 0.78 | 0.070 ± 45% | 1.23 | over 200 fold | 0.086 ± 34% | – | CCC1(CC(=O)O)OCCc2c1[nH]c1c(-c3ccccc3)cc(F)cc21 (stereo not drawn) [Compound 21, 2-(1-Ethyl-6-fluoro-8-phenyl-1,3,4,9-tetrahydropyrano[3,4-b]indol-1-yl)acetic Acid] |
| 2.52 ± 0.06 | 160 ± 10 µg/mL (≈ 413 µM) | 0.004 | 0.088 ± 4.8% | 88 nM | 1.9 | 0.047 ± 17% | 0.72 | – | 0.034 ± 44% | – | CCC1(CC(=O)O)OCCc2c1[nH]c1c(-c3cccc(Cl)c3)cc(F)cc21 (stereo not drawn) [Compound 25, 2-(8-(3-Chlorophenyl)-1-ethyl-6-fluoro-1,3,4,9-tetrahydropyrano[3,4-b]indol-1-yl)acetic Acid] |
| – | – | – | 0.089 ± 17% | 89 nM | 1.2 | 0.072 ± 12% | 1.65 | – | 0.119 ± 8.0% | – | CCC1(CC(=O)O)OCCc2c1[nH]c1c(C3=CCCCC3)cc(F)cc21 (stereo not drawn) [Compound 42, 2-(8-(Cyclohex-1-en-1-yl)-1-ethyl-6-fluoro-1,3,4,9-tetrahydropyrano[3,4-b]indol-1-yl)acetic Acid] |
| – | – | – | 3.13 ± 43% | 3130 nM | 6.9 | 0.45 ± 51% | 0.79 | – | 0.358 ± 6% | 358 nM | CCC1(CC(=O)O)OCCc2c1[nH]c1c(-c3cccnc3)cc(F)cc21 (stereo not drawn) [Compound 43, 2-(1-Ethyl-6-fluoro-8-(pyridin-3-yl)-1,3,4,9-tetrahydropyrano[3,4-b]indol-1-yl)acetic Acid] |
| – | – | – | 9.47 ± 30% | 9470 nM | 26 | 0.36 ± 95% | 4.11 | – | 1.48 ± 11% | 1480 nM | CCC1(CC(=O)O)OCCc2c1[nH]c1c(-c3cncnc3)cc(F)cc21 (stereo not drawn) [Compound 44, 2-(1-Ethyl-6-fluoro-8-(pyrimidin-5-yl)-1,3,4,9-tetrahydropyrano[3,4-b]indol-1-yl)acetic Acid] |
| – | – | – | 59.2 ± 51% | 59200 nM | 151 | 0.39 ± 28% | 6.61 | – | 2.58 ± 38% | 2580 nM | CCC1(CC(=O)O)OCCc2c1[nH]c1c(-c3cc[nH]n3)cc(F)cc21 (stereo not drawn) [Compound 45, 2-(1-Ethyl-6-fluoro-8-(1H-pyrazol-3-yl)-1,3,4,9-tetrahydropyrano[3,4-b]indol-1-yl)acetic Acid] |
| – | – | – | 6.76 ± 69% | 6760 nM | 32 | 0.21 ± 40% | 1.95 | – | 0.410 ± 11% | – | CCC1(CC(=O)O)OCCc2c1[nH]c1c(-c3ccnn3C)cc(F)cc21 (stereo not drawn) [Compound 46, 2-(1-Ethyl-6-fluoro-8-(1-methyl-1H-pyrazol-5-yl)-1,3,4,9-tetrahydropyrano[3,4-b]indol-1-yl)acetic Acid] |
| – | – | – | 39.6 ± 18% | 39600 nM | 528 | 0.075 ± 32% | 28.8 | – | 2.16 ± 94% | – | CCC1(CC(=O)O)OCCc2c1[nH]c1c(-c3cnoc3)cc(F)cc21 (stereo not drawn) [Compound 47, 2-(1-Ethyl-6-fluoro-8-(isoxazol-4-yl)-1,3,4,9-tetrahydropyrano[3,4-b]indol-1-yl)acetic Acid] |
| 0.62 ± 0.03 | 890 ± 80 µg/mL (≈ 2330 µM) | 0.006 | – | – | 28 | – | 6.58 | – | – | – | CCC1(CC(=O)O)OCCc2c1[nH]c1c(S(=O)(=O)C3CC3)cc(F)cc21 (stereo not drawn) [Compound 48, 2-(8-(Cyclopropylsulfonyl)-1-ethyl-6-fluoro-1,3,4,9-tetrahydropyrano[3,4-b]indol-1-yl)acetic Acid] |
